PubChem BioAssay (NCI)
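The compound was tested at five concentrations on cells cultured in 96-well plates, with a 48-hour exposure period. The concentration for 50% growth inhibition is given as GI50. TGI is the concentration that stops growth completely.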

Assays:
Experiment in all cases: inhibition of tumour cell growth, NCI panel, 48 h
[1] = test system: OVCAR-5 ovarian
[2] = test system: HCT-15 colon
[3] = test system: M19-MEL melanoma
[4] = test system: UACC-62 melanoma
[5] = test system: U251 CNS
[6] = test system: SK-MEL-5 melanoma
[7] = test system: XF 498 CNS
[8] = test system: SR leukemia
[9] = test system: MDA-MB-231 breast
[10] = test system: NCI/ADR-RES ovarian

SMILES | TGI [1] | TGI [2] | TGI [3] | TGI [4] | TGI [5] | TGI [6] | TGI [7] | TGI [8] | TGI [9] | TGI [10] | GI50 [1] | GI50 [8] | GI50 [2] | GI50 [3] | GI50 [4] | GI50 [5] | GI50 [6] | GI50 [7] | GI50 [9] | GI50 [10]
COc1ccc(C=O)cc1O[Si](C)(C)C(C)(C)C | > 100 µM | > 100 µM | > 100 µM | > 100 µM | > 100 µM | > 100 µM | – | – | – | – | – | – | – | – | – | – | – | – | – | –
COC(=O)C(=O)CC(=O)CCn1[nH]c(=O)c(Cl)c(Cl)c1=O | > 100 µM | > 100 µM | > 100 µM | > 100 µM | > 100 µM | > 100 µM | > 100 µM | – | – | – | – | – | – | – | – | – | – | – | – | –
O=C1N/C(=C\[N+](=O)[O-])c2ccccc21 | > 100 µM | > 100 µM | > 100 µM | > 100 µM | > 100 µM | > 100 µM | – | > 100 µM | – | – | – | – | – | – | – | – | – | – | – | –
CNC(=O)OCc1nc(SSC(C)(C)C)n(C)c1COC(=O)NC | 21 µM | 4.14 µM | 13.6 µM | 5.09 µM | 25.6 µM | 16.5 µM | 5.47 µM | 5.54 µM | 6.95 µM | 20.3 µM | – | – | – | – | – | – | – | – | – | –
CCC[CH2][Sn]([CH2]CCC)([O]C(=O)CN)[O]C(=O)CN | > 100 µM | 63.6 µM | > 100 µM | 60.5 µM | 80.7 µM | > 100 µM | 48 µM | 95.6 µM | – | – | > 100 µM | 22.9 µM | 26.9 µM | 49.7 µM | 17.5 µM | 26 µM | 66.6 µM | 19.6 µM | – | –
COc1cc(NCC(C#N)C#N)ccc1N=Nc1ccc(Cl)cc1 | 44.4 µM | 47.4 µM | 55.9 µM | 23.8 µM | 37 µM | 45.9 µM | – | 35.9 µM | – | – | – | – | – | – | – | – | – | – | – | –
COc1cc(NS(=O)(=O)c2ccc(C)cc2)c2nccnc2c1 | > 100 µM | > 100 µM | 55 µM | 34.6 µM | 89.3 µM | 63.7 µM | > 100 µM | > 100 µM | – | – | – | – | – | – | – | – | – | – | – | –
O=C1C=C(Nc2ccccc2C(=O)CC(=O)C(=O)Nc2cccc([N+](=O)[O-])c2)c2ccccc2C1=O | > 100 µM | > 100 µM | 19.3 µM | 86.8 µM | > 100 µM | 26.3 µM | 53.8 µM | – | – | – | – | – | – | – | – | – | – | – | – | –
COc1ccc([C@@]2(O)c3c(ccc(O)c3OC)[C@H]2OC)c(OC)c1 | > 100 µM | – | > 100 µM | – | > 100 µM | > 100 µM | > 100 µM | > 100 µM | – | – | – | – | – | – | – | – | – | – | – | –
CC(=O)C1C(c2ccccc2)C2(C)OC(=O)C(C#N)C12C (centres undefined) | > 100 µM | > 100 µM | > 100 µM | > 100 µM | > 100 µM | > 100 µM | > 100 µM | – | – | – | – | – | – | – | – | – | – | – | – | –
N#C/C(=C/c1cccc(Oc2ccccc2)c1)c1ccccc1 | > 100 µM | > 100 µM | > 100 µM | > 100 µM | > 100 µM | > 100 µM | > 100 µM | > 100 µM | – | – | – | – | – | – | – | – | – | – | – | –
CCOC(=O)[CH-]C(=O)C12CC3CC(CC(C3)C1)C2.CCOC(=O)[CH-]C(=O)C12CC3CC(CC(C3)C1)C2.CC[O-].CC[O-].[Ti+4] | – | – | > 100 µM | > 100 µM | > 100 µM | > 100 µM | – | > 100 µM | – | – | – | > 100 µM | – | > 100 µM | > 100 µM | > 100 µM | > 100 µM | – | – | –
O=S(=O)(C1=CC(S(=O)(=O)c2ccccc2)CN(Cc2ccccc2)C1c1cccc2ccccc12)c1ccccc1 (centres undefined) | > 69 µM | > 69 µM | > 69 µM | > 69 µM | > 69 µM | > 69 µM | – | – | – | – | – | – | – | – | – | – | – | – | – | –
CC(=O)Oc1cc2c(cc1OC(C)=O)C1(C)CCC2(C)c2cc(OC(C)=O)c(OC(C)=O)cc21 | 80.9 µM | 85.3 µM | 75.2 µM | 29.5 µM | – | 54.7 µM | 29.1 µM | – | – | – | – | – | – | – | – | – | – | – | – | –
CCCC1(CC(=O)O)OCCc2c1[nH]c1ccccc21 (centres undefined) | > 100 µM | > 100 µM | > 100 µM | > 100 µM | > 100 µM | > 100 µM | > 100 µM | – | – | – | – | – | – | – | – | – | – | – | – | –
O=C(Nc1cccc(O)c1)C(=O)C1C(=O)NC(=S)NC1=O | – | > 100 µM | > 100 µM | > 100 µM | > 100 µM | > 100 µM | > 100 µM | > 100 µM | – | – | – | – | – | – | – | – | – | – | – | –
C[C@]12CC=CC(=O)[C@@]1(C)CCC(=O)C2 | > 100 µM | – | > 100 µM | > 100 µM | > 100 µM | > 100 µM | > 100 µM | > 100 µM | – | – | – | – | – | – | – | – | – | – | – | –
Cc1ccc(S(=O)(=O)N/N=C2\CCCCC23CCC(=O)NC3)cc1 (centres undefined) | – | > 100 µM | > 100 µM | > 100 µM | > 100 µM | > 100 µM | – | > 100 µM | – | – | – | – | – | – | – | – | – | – | – | –
CN(C)Cc1cc(C(F)(F)F)ccc1C(O)(c1ccccc1)c1ccccc1 | 36.9 µM | 28.6 µM | – | 26 µM | 24.9 µM | 27.3 µM | – | 28 µM | 24.8 µM | 30.4 µM | – | – | – | – | – | – | – | – | – | –
N#CCC(=O)N/N=C1/C(=O)N(c2ccc(Cl)cc2)C(=O)C(=O)C1c1nc2ccccc2s1 (centres undefined) | > 100 µM | > 100 µM | > 100 µM | > 100 µM | > 100 µM | > 100 µM | > 100 µM | – | – | – | – | – | – | – | – | – | – | – | – | –
CCCCCCCCCCCC(=O)OCCOCCOCCOCCOCCOC(=O)CCCCCCCCCCC | > 100 µM | > 100 µM | > 100 µM | > 100 µM | > 100 µM | > 100 µM | – | > 100 µM | – | – | – | – | – | – | – | – | – | – | – | –
CC(=O)c1ccc(NC(=O)/C(CC(=O)c2sc(-c3cccnc3)nc2C)=N/NC(N)=O)cc1 | > 100 µM | > 100 µM | > 100 µM | > 100 µM | > 100 µM | > 100 µM | > 100 µM | > 100 µM | – | – | – | – | – | – | – | – | – | – | – | –
NC(CSC(c1ccccc1)(c1ccccc1)c1ccccc1)C(=O)NCC(=O)O (centres undefined) | > 100 µM | > 100 µM | – | > 100 µM | 63.8 µM | 31.4 µM | – | 38.2 µM | 9.42 µM | > 100 µM | 22.5 µM | 3.48 µM | 4.89 µM | – | 7.25 µM | 3.64 µM | 3.4 µM | – | 2.65 µM | 26.5 µM
N[C@H](C(=O)O)[C@@H]1CC(Cl)=NO1 | 648 µM | > 912 µM | – | 401 µM | > 1000 µM | 493 µM | 250 µM | > 583 µM | > 1000 µM | 530 µM | – | 3.44 µM | 8.33 µM | – | 35.1 µM | 9.73 µM | 8.51 µM | – | – | 37.7 µM
